Experimental data as given in ChEMBL document CHEMBL4425158, “Synthesis, structure-activity relationships and biological evaluation of 4,5,6,7-tetrahydropyrazolopyrazines as metabotropic glutamate receptor 5 negative allosteric modulators” (Bioorg Med Chem Lett, 2016).
pIC50: −log10 of the molar value. Active and inactive are the calls of the source. The calls are words filed in the database; no cut-off is given here.

How the values were obtained:
[1] = biological target: Metabotropic glutamate receptor 5 (Homo sapiens, UniProt P41594); assay: Negative allosteric modulation of human recombinant mGluR5 expressed in HEK293 cells assessed as L-glutamate-induced intracellular calcium mobilization incubated for 20 mins before L-glutamate addition; format: functional, cell-based
Mus musculus = assay: Antidepressant activity in CD1(ICR) mouse assessed as decrease in immobility time at 60 mg/kg, po after 1 hr by tail suspension test; format: functional, organism-based

Metabotropic glutamate receptor 5, sequence (P41594 whole entry): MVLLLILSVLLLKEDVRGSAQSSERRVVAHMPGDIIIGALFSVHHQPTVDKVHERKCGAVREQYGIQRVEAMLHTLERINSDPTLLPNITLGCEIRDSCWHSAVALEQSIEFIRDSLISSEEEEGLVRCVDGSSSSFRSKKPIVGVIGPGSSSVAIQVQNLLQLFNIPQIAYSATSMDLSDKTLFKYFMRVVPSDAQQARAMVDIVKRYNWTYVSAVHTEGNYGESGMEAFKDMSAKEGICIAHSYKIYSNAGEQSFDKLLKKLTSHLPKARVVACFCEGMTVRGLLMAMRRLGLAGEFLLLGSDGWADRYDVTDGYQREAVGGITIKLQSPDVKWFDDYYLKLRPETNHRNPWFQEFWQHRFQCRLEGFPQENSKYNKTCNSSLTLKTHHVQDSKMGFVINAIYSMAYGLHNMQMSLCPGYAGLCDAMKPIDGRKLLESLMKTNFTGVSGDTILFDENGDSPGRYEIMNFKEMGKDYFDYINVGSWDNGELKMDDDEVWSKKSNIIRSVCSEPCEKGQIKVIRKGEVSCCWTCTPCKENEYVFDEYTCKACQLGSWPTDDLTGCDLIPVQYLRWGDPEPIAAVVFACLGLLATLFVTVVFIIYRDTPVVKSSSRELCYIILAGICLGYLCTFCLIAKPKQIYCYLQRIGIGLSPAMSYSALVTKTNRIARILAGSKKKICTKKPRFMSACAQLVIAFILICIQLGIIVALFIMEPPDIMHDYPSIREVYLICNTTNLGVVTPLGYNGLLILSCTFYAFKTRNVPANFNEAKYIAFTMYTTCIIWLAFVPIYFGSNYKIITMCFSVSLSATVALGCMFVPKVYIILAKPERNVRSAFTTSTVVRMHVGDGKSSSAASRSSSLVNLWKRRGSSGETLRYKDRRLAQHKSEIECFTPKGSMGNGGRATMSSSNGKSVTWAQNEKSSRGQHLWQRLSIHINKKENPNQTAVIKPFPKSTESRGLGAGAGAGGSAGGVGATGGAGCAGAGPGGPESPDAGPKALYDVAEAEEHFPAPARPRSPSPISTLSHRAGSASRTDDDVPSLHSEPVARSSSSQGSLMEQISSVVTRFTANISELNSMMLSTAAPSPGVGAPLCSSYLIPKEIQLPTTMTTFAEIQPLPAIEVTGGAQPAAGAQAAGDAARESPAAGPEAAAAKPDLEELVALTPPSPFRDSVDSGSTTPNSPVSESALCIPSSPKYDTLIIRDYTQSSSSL

Structure (SMILES)	pIC50 [1]	Activity (Mus musculus)
O=C(c1ccc(Cl)cc1)N1CCn2nc(-c3ccccn3)cc2C1	5.02	
Cc1ccc(-c2cc3n(n2)CCN(C(=O)c2ccccc2)C3)nc1	6.61	
Cc1cccc(-c2cc3n(n2)CCN(C(=O)c2ccccc2)C3)n1	6.25	
O=C(c1ccccc1)N1CCn2nc(-c3ccc(Cl)cn3)cc2C1	6.70	
CN(C)CCCN1c2ccccc2CCc2ccccc21		Active
O=C(c1ccccc1Cl)N1CCn2nc(-c3ccccn3)cc2C1	5.61	
O=C(c1ccccc1)N1CCn2nc(-c3cccnc3)cc2C1	< 5.00	
O=C(c1cc(Cl)cc(Cl)c1)N1CCn2nc(-c3ccccn3)cc2C1	6.57	

Now from value to compound, other results behind:

pIC50 [1]	Structure (SMILES)	Activity (Mus musculus)
6.32	COc1cccc(C(=O)N2CCn3nc(-c4ccc(F)cn4)cc3C2)c1	
6.82	O=C(c1cccc(Cl)c1)N1CCn2nc(-c3ccc(F)cn3)cc2C1	
6.42	O=C(c1cccc(C(F)(F)F)c1)N1CCn2nc(-c3ccc(F)cn3)cc2C1	
< 5.00	N#Cc1cccc(C(=O)N2CCn3nc(-c4ccc(F)cn4)cc3C2)c1	
